This is an account of results in patent US20190292189A1, “LIM KINASE INHIBITORS” (VIRONGY, LLC, priority 2016, published 2019).

For one series, the target named is P450 2D6 (Homo sapiens, UniProt P10635). Nature of the series: P450 inhibition at 10 μM. The series is classed as in vitro ADME.
A further series concerns the target P450 2C9 (Homo sapiens, UniProt P11712). Nature of the series: P450 inhibition at 10 μM. The series is classed as in vitro ADME.
Series [1] in a line: Microsomal stability, rat liver microsomes. The series is classed as in vitro ADME. The note with it: rat liver microsomes. Background: Microsomes from liver hold many membrane-bound enzymes, among them those of drug oxidation.
Series [2] has as its target T1, Limk1 (Homo sapiens, UniProt P53667). Nature of the series: Limk1 biochemical assay (Reaction Biology, 10-dose IC50). The note with it: Table 5; means of ≥2 experiments; read-out: Biochemical IC50 (nM) Limk1. Also on record: His; purchased Reaction Biology Corporation; host or cells: insect cells.
Target sequence in this assay (P53667 285-638): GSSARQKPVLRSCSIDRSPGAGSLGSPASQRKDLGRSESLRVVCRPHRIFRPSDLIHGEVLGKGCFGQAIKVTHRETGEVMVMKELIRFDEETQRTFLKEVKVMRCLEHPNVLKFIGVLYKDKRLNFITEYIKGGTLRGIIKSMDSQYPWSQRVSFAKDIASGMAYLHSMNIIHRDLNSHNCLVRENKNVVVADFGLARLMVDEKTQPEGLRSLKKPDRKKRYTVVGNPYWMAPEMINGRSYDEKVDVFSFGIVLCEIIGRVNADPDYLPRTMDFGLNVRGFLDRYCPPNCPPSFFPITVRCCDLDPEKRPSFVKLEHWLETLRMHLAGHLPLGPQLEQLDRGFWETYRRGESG
The nature of series [3]: Plasma pharmacokinetics studies on rats. The note with it: rats, iv dosing 1 mg/kg. The procedure:
In vivo pharmacokinetics (PK) studies were conducted for selected compounds during the whole optimization at various stages in order to identify structural elements that are favorable for in vivo applications, and/or to evaluate the feasibility of optimized Limk inhibitors for animal studies.

Another series deals with ROCK-II (Homo sapiens, UniProt O75116). The series can be described thus: ROCK-II biochemical counter-screen. Background: A counterscreen serves to expose hits that act by an unwanted route or on another target.
Series [4] in a line: IOP lowering on rat eyes, topical dosing. The series is classed as in vivo, Brown Norway rats.
The target of the next series is T2, P450 1A2 (Homo sapiens, UniProt P05177).
T2 sequence (P05177 1-516): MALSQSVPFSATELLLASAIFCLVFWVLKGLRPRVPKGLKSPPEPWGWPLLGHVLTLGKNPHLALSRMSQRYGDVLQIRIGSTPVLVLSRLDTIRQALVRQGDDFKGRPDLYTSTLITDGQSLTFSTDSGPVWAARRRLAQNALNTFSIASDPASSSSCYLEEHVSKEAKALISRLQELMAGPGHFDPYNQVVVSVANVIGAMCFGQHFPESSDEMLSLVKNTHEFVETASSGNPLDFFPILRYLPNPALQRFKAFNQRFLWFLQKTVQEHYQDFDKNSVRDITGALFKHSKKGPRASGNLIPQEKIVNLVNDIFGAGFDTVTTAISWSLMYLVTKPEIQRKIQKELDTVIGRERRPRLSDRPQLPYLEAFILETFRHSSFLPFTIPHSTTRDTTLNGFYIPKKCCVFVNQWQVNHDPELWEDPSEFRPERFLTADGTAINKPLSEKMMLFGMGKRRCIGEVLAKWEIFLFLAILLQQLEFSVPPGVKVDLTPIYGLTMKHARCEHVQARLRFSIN
Particulars: 10 μM.

Series [5] can be described thus: Microsomal stability, human liver microsomes. The series is classed as in vitro ADME.
The subject of series [6] is cofilin phosphorylation in A7r5 cells. Nature of the series: In-cell Western assay of cofilin phosphorylation in A7r5 cells. The series is classed as cell-based. The note with it: A7R5, A7r5 cells; read-out: Cofilin Phosphorylation In A7r5 Cells (IC50). The procedure:
A7r5 (15,000 cells/well) were plated in a clear-bottomed Packard View black 96-well plate in 100 μl of 10% FBS DMEM:F12 medium and were allowed to attach overnight. The next day, the cells were serum starved in 1% FBS DMEM medium for 2 hr and then treated with the compounds for 1 hr. […] Next day, they were washed twice with PBS-0.1% Tween 20 (PBST) washing solution for 5 min each at room temperature on the orbital shaker, followed by one wash with Licor Blocking Buffer containing 0.05% Tween-20 for 5 min on the shaker at RT. The cells were then incubated with secondary antibody goat anti-rabbit IR800 (1:500 dilution) for 1 hr at RT in the dark (covered the plate with foil) in Licor blocking buffer-containing Tween-20. Following this, cells were washed twice with PBST for 5 min each at room temperature and then once with Licor blocking buffer-containing 0.05% Tween-20. The wells were then incubated with ToPro 3 stain (nucleic acid staining), diluted 1:4000 in Licor blocking buffer or Licor blocking buffer with 0.05% Tween-20 for 30 min at room temperature in the dark. Finally the plates were washed twice with PBS and analyzed using the Odyssey LICOR Infrared Scanner.

The target in a further series is P450 3A4 (Homo sapiens, UniProt P08684). The series can be described thus: P450 inhibition at 10 μM. The series is classed as in vitro ADME.
Series [7] deals with T1, Limk1. The note with it: reported by a Japanese group; read-out: Limk1 inhibition IC50; cited from earlier work.
Target sequence in this assay (P53667 whole entry, species assumed): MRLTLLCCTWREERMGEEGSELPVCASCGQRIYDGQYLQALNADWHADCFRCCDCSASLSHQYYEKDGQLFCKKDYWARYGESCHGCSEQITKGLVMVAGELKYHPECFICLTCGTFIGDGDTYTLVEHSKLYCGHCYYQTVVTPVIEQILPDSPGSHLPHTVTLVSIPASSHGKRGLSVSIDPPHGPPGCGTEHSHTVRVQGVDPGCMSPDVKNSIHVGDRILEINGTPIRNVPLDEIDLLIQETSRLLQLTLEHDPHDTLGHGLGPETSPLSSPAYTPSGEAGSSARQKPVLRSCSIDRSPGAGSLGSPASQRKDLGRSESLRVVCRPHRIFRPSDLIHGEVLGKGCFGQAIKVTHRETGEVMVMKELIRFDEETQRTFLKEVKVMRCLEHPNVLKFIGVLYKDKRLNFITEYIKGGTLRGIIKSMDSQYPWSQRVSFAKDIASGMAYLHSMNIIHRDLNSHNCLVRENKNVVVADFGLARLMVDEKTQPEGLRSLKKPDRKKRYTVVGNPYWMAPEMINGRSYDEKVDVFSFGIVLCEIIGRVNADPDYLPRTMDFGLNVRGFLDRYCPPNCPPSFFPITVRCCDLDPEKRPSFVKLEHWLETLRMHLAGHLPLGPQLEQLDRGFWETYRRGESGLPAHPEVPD

Where two headings read alike, the source gives them in different places. Where only a bound is given, the exact number is not on record here.

ROCK-II, sequence (O75116 whole entry, species assumed): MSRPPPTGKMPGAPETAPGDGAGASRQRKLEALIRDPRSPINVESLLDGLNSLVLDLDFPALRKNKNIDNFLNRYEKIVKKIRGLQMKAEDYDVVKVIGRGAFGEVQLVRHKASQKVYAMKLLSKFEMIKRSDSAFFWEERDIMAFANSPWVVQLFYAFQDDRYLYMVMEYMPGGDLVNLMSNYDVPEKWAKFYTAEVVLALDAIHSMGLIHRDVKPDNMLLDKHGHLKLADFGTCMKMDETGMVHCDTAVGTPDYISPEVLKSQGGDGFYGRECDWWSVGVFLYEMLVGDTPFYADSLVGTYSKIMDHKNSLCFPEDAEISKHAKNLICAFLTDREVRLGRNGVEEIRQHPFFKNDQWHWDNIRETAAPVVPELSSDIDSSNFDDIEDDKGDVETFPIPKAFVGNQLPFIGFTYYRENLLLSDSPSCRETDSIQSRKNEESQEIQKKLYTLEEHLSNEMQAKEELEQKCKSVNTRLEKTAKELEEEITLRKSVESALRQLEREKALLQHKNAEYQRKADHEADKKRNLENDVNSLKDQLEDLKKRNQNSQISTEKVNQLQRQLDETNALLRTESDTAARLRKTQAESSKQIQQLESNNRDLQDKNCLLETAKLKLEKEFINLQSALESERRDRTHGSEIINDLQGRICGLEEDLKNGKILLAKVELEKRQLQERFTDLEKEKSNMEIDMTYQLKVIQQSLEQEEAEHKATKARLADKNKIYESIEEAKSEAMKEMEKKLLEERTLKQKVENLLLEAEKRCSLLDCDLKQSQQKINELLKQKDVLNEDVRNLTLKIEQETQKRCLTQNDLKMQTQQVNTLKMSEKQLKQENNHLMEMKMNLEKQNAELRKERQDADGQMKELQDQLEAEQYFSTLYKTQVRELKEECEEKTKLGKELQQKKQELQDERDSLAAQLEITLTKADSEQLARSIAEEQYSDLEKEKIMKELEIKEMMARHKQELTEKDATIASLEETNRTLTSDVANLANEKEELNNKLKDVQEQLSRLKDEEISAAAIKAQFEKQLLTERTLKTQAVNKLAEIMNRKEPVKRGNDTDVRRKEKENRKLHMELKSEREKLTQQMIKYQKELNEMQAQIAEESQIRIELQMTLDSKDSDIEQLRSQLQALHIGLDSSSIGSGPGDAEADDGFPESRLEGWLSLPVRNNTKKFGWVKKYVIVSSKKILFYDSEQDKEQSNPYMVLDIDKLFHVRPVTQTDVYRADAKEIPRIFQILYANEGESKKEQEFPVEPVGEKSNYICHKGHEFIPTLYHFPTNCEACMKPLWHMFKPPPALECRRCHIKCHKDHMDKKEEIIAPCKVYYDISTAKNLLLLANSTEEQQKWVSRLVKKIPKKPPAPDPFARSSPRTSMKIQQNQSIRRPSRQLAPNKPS
P450 2C9, sequence (P11712 whole entry): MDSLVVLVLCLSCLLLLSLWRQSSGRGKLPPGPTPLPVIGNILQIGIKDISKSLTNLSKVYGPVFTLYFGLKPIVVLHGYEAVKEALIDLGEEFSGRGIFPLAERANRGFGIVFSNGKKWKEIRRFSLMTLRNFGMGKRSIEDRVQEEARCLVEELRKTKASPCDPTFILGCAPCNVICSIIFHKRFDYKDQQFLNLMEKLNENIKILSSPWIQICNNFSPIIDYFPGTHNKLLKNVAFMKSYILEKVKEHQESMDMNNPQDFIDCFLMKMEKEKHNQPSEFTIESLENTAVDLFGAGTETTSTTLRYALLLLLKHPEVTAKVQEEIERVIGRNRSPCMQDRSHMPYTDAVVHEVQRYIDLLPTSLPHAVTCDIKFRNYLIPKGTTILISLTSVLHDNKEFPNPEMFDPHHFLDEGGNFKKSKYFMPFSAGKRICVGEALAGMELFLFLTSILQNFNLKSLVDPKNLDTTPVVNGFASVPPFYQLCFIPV
P450 2D6, sequence (P10635 whole entry): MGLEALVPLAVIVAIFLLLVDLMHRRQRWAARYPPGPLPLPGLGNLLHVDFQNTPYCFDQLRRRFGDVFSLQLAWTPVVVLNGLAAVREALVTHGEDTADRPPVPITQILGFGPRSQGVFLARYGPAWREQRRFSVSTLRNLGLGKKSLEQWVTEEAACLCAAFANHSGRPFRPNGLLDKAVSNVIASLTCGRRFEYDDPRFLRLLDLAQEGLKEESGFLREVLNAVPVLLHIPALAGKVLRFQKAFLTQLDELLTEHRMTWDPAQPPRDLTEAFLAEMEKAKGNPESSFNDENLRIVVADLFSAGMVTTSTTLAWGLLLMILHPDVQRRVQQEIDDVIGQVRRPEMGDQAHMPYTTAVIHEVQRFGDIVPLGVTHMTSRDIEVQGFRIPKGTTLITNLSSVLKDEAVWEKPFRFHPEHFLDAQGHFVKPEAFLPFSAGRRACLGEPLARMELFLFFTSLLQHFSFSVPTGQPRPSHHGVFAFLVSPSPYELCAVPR
P450 3A4, sequence (P08684 whole entry): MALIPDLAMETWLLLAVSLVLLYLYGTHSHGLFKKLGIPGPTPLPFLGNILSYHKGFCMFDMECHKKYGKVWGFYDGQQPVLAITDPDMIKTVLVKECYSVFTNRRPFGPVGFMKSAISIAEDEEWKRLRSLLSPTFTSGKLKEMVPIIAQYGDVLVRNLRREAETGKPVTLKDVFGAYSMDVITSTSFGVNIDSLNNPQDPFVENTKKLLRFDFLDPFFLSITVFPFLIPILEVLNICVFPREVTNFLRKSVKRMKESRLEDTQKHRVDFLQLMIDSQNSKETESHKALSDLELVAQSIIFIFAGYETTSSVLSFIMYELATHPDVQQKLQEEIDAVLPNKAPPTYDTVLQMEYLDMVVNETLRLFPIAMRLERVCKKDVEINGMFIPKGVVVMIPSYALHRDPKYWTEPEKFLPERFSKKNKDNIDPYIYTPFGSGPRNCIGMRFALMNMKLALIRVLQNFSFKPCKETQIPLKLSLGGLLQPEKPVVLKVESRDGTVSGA

On to `Cc1[nH]c2ncnc(-c3ccc(NC(=O)N(CCN(C)C)c4ccc(Cl)cc4)c(F)c3)c2c1C` [Compound 18w, 1-(4-Chlorophenyl)-3-(4-(5,6-dimethyl-7H-pyrrolo[2,3-d]pyrimidin-4-yl)-2-fluorophenyl)-1-(2-(dimethylamino)ethyl)urea], for which, at P450 2D6, the “P450 % inh. at 10 μM 2D6” value is 20%. For the same compound, at P450 2C9, the “P450 % inh. at 10 μM 2C9” value was −23%. Moreover, the “Microsomal Stability t1/2 (min) Rat” value in series [1] turned out to be 23 min. Also, the IC50 at Limk1 [2] is 19 nM; at ROCK-II (Table 5, means of ≥2 experiments, read-out: Biochemical IC50 (nM) ROCK-II), greater than 20000 nM; at ROCK-II (read-out: ROCK-II IC50), greater than 20000 nM; in series [6] it was 0.32 µM. In addition, the “AUC (iv)” value in series [3] amounted to 3.0 µM·h. In series [3], the “Cl (iv)” value is 0.852 L/h/kg. Also, in series [3], the “T1/2 (iv)” value was found to be 198 min. The “Yd (iv)” value in series [3] is reported as 1.5 L/kg. Also, the highest concentration (Cmax) in [3] (read-out: Cmax (iv)) worked out at 2.4 µM. In addition, in series [4] (20 ul of […], from 1 to 4 hours, baseline 28 mmHg), the “maximal IOP decrease of the treated eye” value is reported as roughly 6 mmHg. In series [4] (topical, dose of 50 μg), the “IOP drop on rat eyes” value was greater than 20%. In addition, the “P450 % inh. at 10 μM 1A2” value at P450 1A2 is 15%. The “Microsomal Stability t1/2 (min) Human” value in series [5] came out at 19 min. On P450 3A4, the “P450 % inh. at 10 μM 3A4” value is −9%.
For `COc1c(C=O)c(O)cc2c1C(=O)c1ccccc1C2=O` [Damnacanthal], the IC50 on Limk1 [7] was roughly 0.8 µM.

What is called IC50 is the concentration that gives 50% inhibition. The term Cmax denotes the highest concentration seen after dosing.
